Measurements reported in patent publication US12441976B2, “Process for reducing the activity of microbial contamination in a yeast medium” (Lallemand Hungary Liquidity Management LLC, priority 2020, dated 2025).

System: contaminating wild-type microbial cells (obtained from a commercial plant)
Assay: laboratory scale model: antimicrobial treatment of pasteurized corn mash, change in pH after 12 hours
Assay type: cell-based
Description: A laboratory model has been developed to characterize the microbial activity of various components (in isolation and in combination). Briefly, cycloheximide and glucose are added to a pasteurized corn mash (step 010). At step 020, the pasteurized mash was supplemented with an antimicrobial composition and submitted to an acidic treatment. More specifically, at substep 021, an antimicrobial composition was added to the pasteurized mash. Then, at substep 022, contaminating wild-type microbial cells (obtained from a commercial plant) were added. Afterwards, at substep 023, the mash was submitted to an acidic treatment with sulfuric acid. The mash was held in such acidic conditions for 30 minutes at 33° C. (step 030). A base was then added to the acidic mash to increase the pH of the mixture (to a level suitable for the growth and metabolic activity of yeasts, step 040). The neutralized mash obtained after step 040 was maintained at 12 hours at 33° C. (step 050). Step 050 was used to allow, if any, the bacterial growth to measure the antimicrobial efficiency of the different treatments. At step 060, the pH and the presence of different metabolites (using HPLC) were determined.

Compound | inhibition, in words (organic acid alone, 0.1% w/v, pH 3.2) | antimicrobial effectiveness, in words (100 ppm nisin added after the pH was raised to 5.5)
O=CO [formate] | greater inhibition than acetate or D/L lactate only | 
nisin |  | more effective than adding nisin as a part of the antimicrobial blend
